Experimental data taken from PMC10221469 (Viruses, 2023).
Like-named read-outs stand apart in the source and are kept apart here.

How the values were obtained:
SARS-CoV-2 [1] = test: microbe, parasite or virus in culture; format: cell-based; settings: Severe acute respiratory syndrome coronavirus 2, Vero C1008; read-out: CPE IC50
in vitro [2] = settings: african green monkey
SARS-CoV-2 [3] = test: microbe, parasite or virus in culture; format: cell-based; settings: for IC50: read-out: IC50 (anti-viral activity)
in vitro [4] = settings: human, CC50, A549 ACE2+ cells, 48 h, CellTiter-Glo
A549 ACE2+ cells = settings: 48 h, CellTiter-Glo
SARS-CoV-2 [5] = test: qPCR readout of viral replication in Vero E6 cells; format: cell-based; settings: Severe acute respiratory syndrome coronavirus 2, Vero C1008, viral replication by qPCR
SARS-CoV-2 nsp13 = SARS-CoV-2 nsp13 (Severe acute respiratory syndrome coronavirus 2, UniProt P0DTD1); test: biochemical; settings: 1 nM nsp13, 1 mM ATP, 15 min at 37 °C; unit printed in b45 only; read-out: IC50 nsp13 helicase unwinding activity
SARS-CoV-2 [6] = test: microbe, parasite or virus in culture; format: cell-based; settings: Severe acute respiratory syndrome coronavirus 2, A549 ACE2+ cells, 48 h p.i., read-out: inhibition of viral titer (plaque reduction)
serine protease TMPRSS2 = target: T1, serine protease TMPRSS2 (Homo sapiens, UniProt O15393); test: TMPRSS2 inhibition (Axxam S.p.A. proprietary assay); format: biochemical
T1 construct: Axxam S.p.A. (assay provider)

[7] = Severe acute respiratory syndrome coronavirus 2, A549-ACE2, 48 h
[8] = ratio of CC50 over IC50, A549 ACE2+ cells

T1 sequence (O15393 whole entry): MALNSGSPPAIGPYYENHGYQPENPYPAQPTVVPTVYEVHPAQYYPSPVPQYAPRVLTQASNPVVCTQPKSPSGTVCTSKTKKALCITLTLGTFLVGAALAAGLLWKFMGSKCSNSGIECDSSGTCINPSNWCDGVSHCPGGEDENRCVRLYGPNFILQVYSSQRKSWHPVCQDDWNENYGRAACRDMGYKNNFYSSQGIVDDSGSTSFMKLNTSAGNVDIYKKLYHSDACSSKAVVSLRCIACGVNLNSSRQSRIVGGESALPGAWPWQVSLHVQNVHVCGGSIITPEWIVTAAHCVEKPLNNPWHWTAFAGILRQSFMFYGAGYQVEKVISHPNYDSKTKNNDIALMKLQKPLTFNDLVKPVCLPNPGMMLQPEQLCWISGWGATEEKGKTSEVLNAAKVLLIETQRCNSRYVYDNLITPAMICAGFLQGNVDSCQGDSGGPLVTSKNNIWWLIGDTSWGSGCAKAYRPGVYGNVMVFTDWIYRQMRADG

Nc1nc(N)c2nc(CNc3ccc(C(=O)N[C@@H](CCC(=O)O)C(=O)O)cc3)cnc2n1 [Aminopterin]
IC50 (SARS-CoV-2 [1]): 330 nM
CC50 (in vitro [2]): > 33000 nM
SI (selectivity index) (SARS-CoV-2 [3]): 1.9
IC50 (SARS-CoV-2 [3]; [7]): > 1500 nM
IC50 (SARS-CoV-2 [3]): 1300 nM
CC50 (in vitro [4]): > 2000 nM
CC50 (A549 ACE2+ cells): 2490 nM
IC50 (SARS-CoV-2 [5]): 80 nM
IC50 (SARS-CoV-2 nsp13): 2590 nM

CN(Cc1cnc2nc(N)nc(N)c2n1)c1ccc(C(=O)N[C@@H](CCC(=O)O)C(=O)O)cc1 [Methotrexate hydrate]
IC50 (SARS-CoV-2 [1]): 2810 nM
inhibition at 1.25 µM (SARS-CoV-2 [6]; 1.25 µM): 94%
inhibition at 2.5 µM (SARS-CoV-2 [6]; 2.5 µM): 98%
CC50 (in vitro [2]): > 33000 nM
IC50 (SARS-CoV-2 [3]; [7]): 630 nM
IC50 (serine protease TMPRSS2): > 30000 nM
CC50 (in vitro [4]): 1180 nM
IC50 (SARS-CoV-2 [5]): 440 nM
IC50 (SARS-CoV-2 nsp13): 2030 nM

Nc1nc2[nH]cc(CCc3ccc(C(=O)N[C@@H](CCC(=O)O)C(=O)O)cc3)c2c(=O)[nH]1 [Pemetrexed disodium heptahydrate]
IC50 (SARS-CoV-2 [3]): 5000 nM
CC50 (in vitro [4]): > 2000 nM
CC50 (A549 ACE2+ cells): 2430 nM

C#CCC(Cc1cnc2nc(N)nc(N)c2n1)c1ccc(C(=O)N[C@@H](CCC(=O)O)C(=O)O)cc1 (stereo partly drawn) [Pralatrexate]
IC50 (SARS-CoV-2 [1]): 50 nM
inhibition at 0.019 µM (SARS-CoV-2 [6]): 90.4%
inhibition at 0.039 µM (SARS-CoV-2 [6]): 96.5%
CC50 (in vitro [2]): > 33000 nM
SI (selectivity index) (SARS-CoV-2 [3]): 2
IC50 (SARS-CoV-2 [3]; [7]): 4 nM
IC50 (serine protease TMPRSS2): 450 nM
CC50 (in vitro [4]): 8 nM
IC50 (SARS-CoV-2 [5]): 80 nM
IC50 (SARS-CoV-2 nsp13): 140 nM

Cc1nc2ccc(CN(C)c3ccc(C(=O)N[C@@H](CCC(=O)O)C(=O)O)s3)cc2c(=O)[nH]1 [Raltitrexed]
SI (selectivity index) (SARS-CoV-2 [3]; [8]): 0.2
CC50 (in vitro [4]): 890 nM
IC50 (SARS-CoV-2 nsp13): 3220 nM

CCC(CC)COC(=O)[C@H](C)N[P@](=O)(OC[C@H]1O[C@@](C#N)(c2ccc3c(N)ncnn23)[C@H](O)[C@@H]1O)Oc1ccccc1 [Remdesivir]
IC50 (SARS-CoV-2 [1]): 2740 nM
CC50 (in vitro [2]): > 33000 nM
IC50 (SARS-CoV-2 [5]): 3200 nM

COc1cc(NCc2ccc3nc(N)nc(N)c3c2C)cc(OC)c1OC [Trimetrexate]
IC50 (SARS-CoV-2 [1]): 340 nM
inhibition at 0.009 µM (SARS-CoV-2 [6]; 0.009 µM): 86%
inhibition at 0.019 µM (SARS-CoV-2 [6]): 97.5%
inhibition at 0.039 µM (SARS-CoV-2 [6]): 96.5%
CC50 (in vitro [2]): > 33000 nM
IC50 (SARS-CoV-2 [3]; [7]): 7 nM
SI (selectivity index) (SARS-CoV-2 [3]; [8]): 1.4
IC50 (serine protease TMPRSS2): > 30000 nM
CC50 (in vitro [4]): 10 nM
IC50 (SARS-CoV-2 [5]): 80 nM
IC50 (SARS-CoV-2 nsp13): 1560 nM
